The source of these data is patent US12061143B2, “Methods for rapid determinations of antibiotic susceptibility phenotypes” (priority 2018, dated 2024).

Molecules are shown by their SMILES. Values after ≈ are worked out from the molar mass of the structure shown. Like-named read-outs stand apart in the source and are kept apart here.

What all share (type): cell-based
In experiment [1] the test system is A. nosocomialis M2. Description: MIC by broth microdilution AST. To be noted: for MIC: microdilution from pure culture; for MIC (S/I/R): class according to 2016 CLSI handbook. As to the method: (§1) Varied counts of bacteria were mixed with human blood and diluted 1:9 (v/v) with bacterial growth medium to desired bacterial concentrations (<10 CFU/mL final solution) and plated to independently confirm CFU/mL blood. Saponin was immediately added and the samples shaken for 15 minutes to achieve selective blood cell lysis. After hemolysis, bacteria were spun down and washed with PBS. The pellets were resuspended in bacterial growth medium and incubated at 37° C. for 2 hours, followed by another 3-hour incubation with antibiotics at various fractions of the minimum inhibition concentration (MIC, as independently determined by microdilution from the pure starting culture, Table 1) for sensitive strains or at the CLSI MIC resistant breakpoints^(12) for the highly resistant strains. Changes in scattered light signals largely resulting from bacterial growth inhibition were monitored by flow cytometry, and the difference in the 2-D scatter histograms with and without antibiotic treatment was quantified with PB-sQF statistics.^(1) Using PB-sQF, distance was calculated for each antibiotic concentration relative to its own no-antibiotic control and expressed as “fold distance” relative to the 99% confidence limit distance between the no-antibiotic control and the sensitive breakpoint. This allowed comparison of fold distances among all samples as each is individually paired to its own control, as is each replicate.
(§2) All clinical isolates (E. coli strains Mu14S and Mu890, K. pneumoniae strains Mu670 and Mu55, A. nosocomialis strains M2) were obtained from the Georgia Emerging Infection Program (GEIP). The MIC of each isolate was determined by a clinical microbiology laboratory using post blood culture automated AST and confirmed using broth microdilution in our laboratory. The MICs of each strain were measured to be as follows. For A. nosocomialis strain M2, 1 μg/mL tetracycline, 2 μg/mL gentamicin, and >1024 μg/mL ampicillin. For E. coli strain Mu890, 1 μg/mL tetracycline, 8 μg/mL gentamicin, and >1024 μg/mL ampicillin. For E. coli strain Mu14S, >64 μg/mL tetracycline, 8 μg/mL gentamicin, and >1024 μg/mL ampicillin. For K. pneumoniae strain Mu55, >64 μg/mL tetracycline, 1 μg/mL gentamicin, and >1024 μg/mL ampicillin. For K. pneumoniae strain Mu670, 2 μg/mL tetracycline, 4 μg/mL gentamicin, and >1024 μg/mL ampicillin.
In general terms: Broth dilution looks for growth in wells or tubes with falling amounts of substance.

Experiment [2] deals with E. coli Mu14S. Description: MIC by broth microdilution AST. The conditions noted are these: for MIC: microdilution from pure culture; for MIC (S/I/R): class according to 2016 CLSI handbook. As for the experimental part:
as §1, §2

Experiment [3] concerns E. coli Mu890. Description: MIC by broth microdilution AST. To be noted: for MIC (S/I/R): class according to 2016 CLSI handbook; for MIC: microdilution from pure culture. As for the experimental part:
as §1, §2

Experiment [4] concerns K. pneumoniae Mu55. Description: MIC by broth microdilution AST. To be noted: for MIC: microdilution from pure culture; for MIC (S/I/R): class according to 2016 CLSI handbook. As to the method: as §1, §2
The subject of experiment [5] is K. pneumoniae Mu670. Description: MIC by broth microdilution AST. To be noted: for MIC: microdilution from pure culture; for MIC (S/I/R): class according to 2016 CLSI handbook. As for the experimental part:
as §1, §2

For experiment [6], the system named is E. coli strain Mu14S. Description: FAST flow cytometry AST with PB-sQF, bacteria recovered from 10% human blood. To be noted: Mu14S treated at each resistant breakpoint (tetracycline 16 μg/mL). As for the experimental part: as §1
(§3) To simulate a blood specimen from a patient with bacteremia, the isolates were grown, diluted to the desired CFU/mL in blood (ZenBio, Research Triangle Park, NC) and saponin was added to achieve the final diluted sample. Initial bacterial cultures were prepared using Luria-Bertani (LB) broth for (E. coli) or cation-adjusted Mueller-Hinton broth (CAMHB). The fresh bacterial cultures started from ˜0.05 optical density (OD) by inoculating a 6-mL fresh growth medium with overnight culture were grown in an incubator shaker (MaxQ 4000, Thermal Fisher Scientific, Waltham, MA) at 37° C. and 225 rpm. After the culture reached mid-log phase, bacteria were collected and diluted into ˜10 CFU/mL through serial 10-fold dilutions. Bacterial densities were determined by plating onto LB plates. The final 10-fold dilution was performed by adding 500 μL of 100 CFU/mL into 4500 μL of 10% human blood in medium.
(§4) A 2.5% (w/v) of saponin solution was prepared, sonicated (Branson 2510, Emerson, St. Louis, MO) for 20 minutes and spun down with a clinical centrifuge (Centrific Model 228, Fisher Scientific, Waltham, MA) for 4 minutes. The supernatant cleared of particulates was collected. 500 μL of 2.5% saponin was then added to the 5 mL of 10% human blood sample with ˜10 CFU/mL, described above and the mixtures were shaken at 300 rpm for 15 minutes at 37° C. After the saponin treatment, the bacteria were pelleted and washed with 2 mL of phosphate buffered saline (PBS) (Life Technologies, Carlsbad, CA) using a clinical centrifuge for 2 minutes. Bacterial growth medium (2.5 mL) was then added to the tube and incubated for 2 hours at 37° C. and 225 rpm.
(§5) After the 2-hour incubation, 500-μL aliquots of the suspension were added to each of 4 wells in a 12-well microtiter plate that contained 500 μL of growth medium with or without antibiotic at 2-fold of specified concentrations. The plate was then incubated at 37° C. for 3 hours. Bacteria were collected by centrifugation (Centrifuge 5417R, Eppendorf) and resuspended in 200 μL of PBS for flow cytometry detection. To ensure each clinical isolate was tested at its MIC values of the tested antibiotics, the initial bacterial cultures at the 1000 CFU/mL dilution were also tested for each experiment (FIGS. 4A-4F, 5A-5F, 7A-7F, 8A-8F, and 9A-9F), confirming that the antibiotic concentrations indeed inhibited bacterial growth.
(§6) Cytometric data were collected by BD LSRFortessa flow cytometer (Becton Dickinson, Franklin Lake, NY) equipped with a 100 mW, 488 nm laser for the scatter signal. […]

Experiment [7] has as its system E. coli strain Mu890. The experiment is described as above. The conditions noted are these: Mu890 treated with 32 μg/mL (Enterobacteriaceae resistance breakpoint), vs no-antibiotic control. As to the method:
as §1, §3, §4, §5, §6

Experiment [8] concerns A. nosocomialis strain M2. Described as above. To be noted: M2 spiked in 10% human blood, assayed within 8 hrs of simulated blood draw.
Description: Varied counts of bacteria were mixed with human blood and diluted 1:9 (v/v) with bacterial growth medium to desired bacterial concentrations (<10 CFU/mL final solution) and plated to independently confirm CFU/mL blood. Saponin was immediately added and the samples shaken for 15 minutes to achieve selective blood cell lysis. After hemolysis, bacteria were spun down and washed with PBS. […] This allowed comparison of fold distances among all samples as each is individually paired to its own control, as is each replicate.
To simulate a blood specimen from a patient with bacteremia, the isolates were grown, diluted to the desired CFU/mL in blood (ZenBio, Research Triangle Park, NC) and saponin was added to achieve the final diluted sample. Initial bacterial cultures were prepared using Luria-Bertani (LB) broth for (E. coli) or cation-adjusted Mueller-Hinton broth (CAMHB). The fresh bacterial cultures started from ˜0.05 optical density (OD) by inoculating a 6-mL fresh growth medium with overnight culture were grown in an incubator shaker (MaxQ 4000, Thermal Fisher Scientific, Waltham, MA) at 37° C. and 225 rpm. […] Bacterial densities were determined by plating onto LB plates. […]
Cytometric data were collected by BD LSRFortessa flow cytometer (Becton Dickinson, Franklin Lake, NY) equipped with a 100 mW, 488 nm laser for the scatter signal. […] Data were recorded with FACSDiVa provided by BD. […]
Experiment [9] concerns 10% human blood samples without bacteria inoculation. Description: Antibiotic-treated 10% human blood only control (no bacteria), flow cytometry. The conditions noted are these: 10% human blood without bacteria, around the resistance breakpoints of Enterobacteriaceae. As to the method: FIGS. 6A-6D. Antibiotic-treated 10% human blood only results. Cytometric data with (FIG. 6A) Ampicillin (FIG. 6B) Tetracycline (FIG. 6C) Gentamicin. The greyscale plots are the no-antibiotic controls and the black contour plots are the antibiotic-treated data with the antibiotic concentration indicated at each plot. (FIG. 6D) PB-sQF results for FIGS. 6A-6C). […] For each antibiotic, the resistant breakpoints of Enterobacteriaceae are 16 μg/mL for tetracycline and gentamicin and 32 μg/mL for ampicillin.
This confirms that the gentamicin sensitivity of Mu14S observed after blood culture^(1) can also be observed on much shorter timescales with FAST. Overnight plating confirms that initial Mu14S counts were 3, 2, 5 and CFU/mL for tetracycline, gentamicin and ampicillin data after 10-fold dilution of the blood/bacteria mixture, corresponding to FAST being performed on whole blood samples containing ˜30, ˜20 and ˜50 CFU/mL. […] Thus, diluting bacterimic blood specimens 1:9 (v:v) directly into saponin-containing growth medium provides a path to ASTs within 8 hours from initial blood draw, with excellent results matching independent (36-44 hrs) MIC determinations from pure, overnight cultures (˜10^8 CFU/mL) that could only be initiated after (˜24 hr) positive blood culture.
(In general: Flow cytometry measures light scatter and fluorescence of single cells or particles in a stream.)

The subject of experiment [10] is E. coli strain ATCC 33456. Description: MIC of lab strain E. coli.
In experiment [11] the test system is Lab-strain E. coli (ATCC). Description: FAST with low bacterial counts (500 counts by flow cytometry). To be noted: each antibiotic at MIC, ¼ MIC and 1/16 MIC, bars beyond the 99% confidence line. The source says:
FIG. 14. Bactericidal Antibiotic-induced changes for low counts of E. coli. Lab-strain E. coli (ATCC) ASTs performed with 500 counts by flow cytometry with gentamicin (Gen), penicillin G (PenG), and tetracycline (Tet) each at MIC, ¼ MIC and 1/16 MIC. This strain is seen to be sensitive to all three antibiotics, as the bars extend beyond the 99% confidence line.
While both morphology and growth inhibition occur upon exposure to antibiotics near the minimum inhibitory concentration, standard ASTs are based on growth inhibition alone. The presence of bacteria is clearly indicated by the presence of a particular scattering peak in the multidimensional histogram. This is much more sensitive and less affected by background than is shifts in a peak resulting from morphological changes upon antibiotic exposure. […] For even a few hundred counts, the presence of a bacterial population can be readily assessed with flow cytometry, but error bars and statistical distances must be properly determined relative to no-antibiotic controls. When too few counts for triplicate runs exist, control and each antibiotic exposure histograms are treated as probability distributions that are representative of the true mother distribution for each condition. Each histogram is binned (either adaptively with probability binning or using regular bins) and the distribution of data within each bin is determined. […]

Experiment [12] deals with E. coli strain ATCC 33456. Description: Pre-blood culture AST with sheep blood, flow cytometry and PB-sQF. As to the method: (§7) To search for the condition to separate bacteria from the blood cells, sheep blood was used as a substitute for human blood. In order to remove the blood cells that have a concentration that is 10^6 to 10^7 times higher than the bacteria, 100 μL of 10% (w/v) saponin was added to 1 mL of sheep blood that was spiked with either 100 μL of LB or 10^4 CFU/mL E. coli strain ATCC 33456 (final concentration ˜10^3 CFU/mL) and incubated for 15 minutes at room temperature to lyse the blood cells. The same procedure was applied to 12 samples loaded in eppendorf tubes. These samples were then washed with PBS and resuspended in 500 μL L B broth. All 12 samples were added to the 12-well plate loaded with 480 μL of LB broth and/or penicillin g with 2× higher desired concentrations and 20 μL, 45 μM of MH-IR786. The plate was incubated for 5 hours. Each sample was then collected and analyzed by flow cytometry.

For experiment [13], the system named is 100% sheep blood only. Description: Pre-blood culture AST, 100% sheep blood only samples. To be noted: no-antibiotic to 1×MIC. As to the method:
as §7

Where [14] appears, read: Acinetobacter nosocomialis, read-out: MIC.
The mark [15] stands for this setting: Escherichia coli, read-out: MIC.
Where [16] appears, read: Escherichia coli, MU890, E. coli Mu890, read-out: MIC.
Setting [17] is: Klebsiella pneumoniae, read-out: MIC.

Broadly, the MIC is the lowest concentration found to suppress growth. As for `CC1(C)S[C@@H]2[C@H](NC(=O)[C@H](N)c3ccccc3)C(=O)N2[C@H]1C(=O)O` [Ampicillin], the MIC in experiment [1] (setting [14]) was more than 1020 µg/mL; in [1] it was more than 1024 µg/mL; in experiment [2] (setting [15]), more than 1020 µg/mL; in experiment [2], more than 1024 µg/mL; in experiment [3] (setting [16]), more than 1020 µg/mL; in experiment [4] (setting [17]), more than 1020 µg/mL. The MIC in [4] was more than 1024 µg/mL; in experiment [5] (setting [17]) it was more than 1020 µg/mL; in experiment [5] it was more than 1024 µg/mL. Besides, the “MIC (S/I/R)” value in experiment [1], in experiment [2], in [3] (E. coli Mu890), in experiment [4] and in experiment [5] was “(R)” in each case. Besides, the “FAST antibiotic-induced scatter signal change” value in experiment [6] was “remained statistically unchanged”; in experiment [7], “indistinguishable from those of the no-antibiotic control”. In addition, the “PB-sQF FAST susceptibility” value in experiment [8] is listed as “resistant”. The “scattered light histograms change” value in experiment [9] is on record as “do not significantly change”.
As to `CN(C)[C@@H]1C(O)=C(C(N)=O)C(=O)[C@@]2(O)C(O)=C3C(=O)c4c(O)cccc4[C@@](C)(O)[C@H]3C[C@@H]12` [Tetracycline], the minimal inhibitory concentration (MIC) in experiment [1] (setting [14]) was 1 µg/mL (≈ 2.25 µM); in experiment [1], 1 µg/mL (≈ 2.25 µM); in experiment [2] (setting [15]), more than 64 µg/mL; in experiment [2], more than 64 µg/mL; in [3] (E. coli Mu890), 1 µg/mL (≈ 2.25 µM); in experiment [3] (E. coli Mu890, listed as tetracycline) it was 2 µg/mL (≈ 4.5 µM). Also, the MIC is 1 µg/mL (≈ 2.25 µM) in [3] (setting [16]), more than 64 µg/mL in [4] (setting [17]), more than 64 µg/mL in experiment [4] and 2 µg/mL (≈ 4.5 µM) in [5] (setting [17]). Also, the “MIC (S/I/R)” value in experiment [1] is on record as “(S)”; in [2], “(R)”; in experiment [3] (E. coli Mu890), “(S)”; in [4] it was “(R)”; in experiment [5], “(S)”.
Turning to `CC1(C)S[C@@H]2[C@H](NC(=O)Cc3ccccc3)C(=O)N2[C@H]1C(=O)O` [penicillin g], in experiment [10], the “1×MIC” value came out at 32 µg/mL. For the same compound, in [11], the “PB-sQF AST susceptibility at low counts” value is “sensitive”. For the same compound, the “cytometric data, growth inhibition” value in experiment [12] (1000 CFU/mL E. coli spiked sheep blood, 1×MIC, 5 hours) is recorded as “clear growth inhibition”. Besides, in experiment [12] (1000 CFU/mL and 10^5 CFU/mL spiked sheep blood, from 1/16×MIC to 1×MIC), the PB-sQF distance entry is on record as “clear increment of distance increases”. In [13], the “cytometric data of blood-only samples” value is on record as “remained very similar to each other”.
